For 82 molecules, outcome and Potency results are on record in PubChem BioAssay AID1199 (EPA DSSTox, 2008).

The test system of the series is mouse carcinogenicity bioassay, TD50 from CPDB. In words: DSSTox (CPDBAS) Carcinogenic Potency Database Summary Mouse Bioassay Results. A digest of the protocol: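 Chronic long-term mouse cancer bioassays from literature and NCI/NTP, compiled per sex. TD50 is the standardized carcinogenic potency, using the most positive experiment per sex-species; target sites follow author opinion.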

Setting [1] is: TD50_Mouse_Note: no positive results, TargetSites_Mouse_Female: no positive results.
Setting [2] is: TD50_Mouse_Note: TD50 is harmonic mean of more than one positive test, TargetSites_Mouse_Female: liver.
The mark [3] stands for this setting: TargetSites_Mouse_Female: no positive results.
Setting [4] is: TD50_Mouse_Note: TD50 is harmonic mean of more than one positive test, TargetSites_Mouse_Female: stomach.
Setting [5] is: TargetSites_Mouse_Female: liver.
The mark [6] stands for this setting: TD50_Mouse_Note: TD50 is harmonic mean of more than one positive test, TargetSites_Mouse_Female: lung.

Calls of active or inactive are those of the source.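 The calls were made as follows: active = a tumour-causing dose and a tumour site recorded for mice in at least one sex group; inconclusive = only government mouse studies exist and were judged inadequate; inactive = mouse studies exist but none gave tumours.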

With `Clc1ccc(C(c2ccccc2Cl)C(Cl)Cl)cc1` (stereo not given), the outcome under setting [1] was “inactive; no positive results”.

On to `ClC(Cl)(Cl)Cl`, for which the Potency (TD50_Mouse_Note: TD50 is harmonic mean of more than one positive test, greater than ten-fold variation among TD50 values for positive res, TargetSites_Mouse_Female: adrenal gland, liver) is 0.218 mmol/kg/day.

On to `CCCCC(CC)COC(=O)CCCCC(=O)OCC(CC)CCCC` (stereo not given), for which, under setting [2], the Potency was 10.5 mmol/kg/day.

Turning to `O=[N+]([O-])c1c(Cl)c(Cl)c(Cl)c(Cl)c1Cl`, the Potency under setting [3] is 0.241 mmol/kg/day.

In the case of `O=C1CCCCC1`, the outcome under setting [1] is “inactive; no positive results”.

Take `COc1ccc(CN(CCN(C)C)c2ccccn2)cc1`: under setting [1], the outcome is “inactive; no positive results”.

Take `C=CC1CC=CCC1` (stereo not given): where the note is “TargetSites_Mouse_Female: ovary”, the Potency was 0.98 mmol/kg/day.

On to `NNC(N)=O`, for which, under “TD50_Mouse_Note: TD50 is harmonic mean of more than one positive test, TargetSites_Mouse_Female: lung, vascular system”, the Potency was 2 mmol/kg/day.

On to `ClC(Cl)=C(c1ccc(Cl)cc1)c1ccc(Cl)cc1`, for which, under setting [2], the Potency was 0.0393 mmol/kg/day.

In the case of `CCCCOCCO`, under setting [4], the Potency is 14.5 mmol/kg/day.

Regarding `CC12CCC(CC1)C(C)(C)O2`, where the note is “TD50_Mouse_Note: no positive results”, the outcome is “inactive; no positive results”.

In the case of `Cc1cc(O)cc(C)c1N(C)C`, the outcome under setting [1] is “inactive; no positive results”.

On to `Nc1cccc2c(N)cccc12`, for which, under “TD50_Mouse_Note: TD50 is harmonic mean of more than one positive test, TargetSites_Mouse_Female: liver, lung, thyroid gland”, the Potency was 1.02 mmol/kg/day.

With `CCOP(=S)(OCC)Oc1cc(C)nc(C(C)C)n1`, the outcome under setting [1] is “inactive; no positive results”.

On to `COc1ccccc1[N+](=O)[O-]`, for which, under setting [2], the Potency is 1.16 mmol/kg/day.

With `CCCCN(N)C=O`, the Potency (TD50_Mouse_Note: TD50 is harmonic mean of more than one positive test, TargetSites_Mouse_Female: clitoral gland, lung) was 0.166 mmol/kg/day.

Take `CCCCCc1cc(O)c2c(c1)OC(C)(C)[C@@H]1CCC(C)=C[C@@H]21`: the outcome under setting [1] was “inactive; no positive results”.

With `NC(=S)NNC(N)=S`, under setting [1], the outcome is “inactive; no positive results”.

In the case of `O=C1Nc2ccc(Cl)cc2C(c2ccccc2)=NC1O` (stereo not given), the Potency (TD50_Mouse_Note: TD50 is harmonic mean of more than one positive test, TargetSites_Mouse_Female: liver, thyroid gland) was 0.125 mmol/kg/day.

`CCN(CC)C(=S)[S-].CCN(CC)C(=S)[S-].[Cd+2]`: under setting [1], the outcome was “inactive; no positive results”.

For the molecule `CNNCc1ccc(C(=O)NC(C)C)cc1`, where the note is “TD50_Mouse_Note: positive test results only by intraperitoneal or intravenous injection, TD50 is harmonic mean of more than one positive, TargetSites_Mouse_Female: hematopoietic system, lung, nervous system, uterus”, the Potency was 0.00216 mmol/kg/day.

As for `C=C(Cl)Cl`, the Potency (TD50_Mouse_Note: TD50 is harmonic mean of more than one positive test, TargetSites_Mouse_Female: lung, mammary gland, vascular system) is 0.357 mmol/kg/day.

Take `CC1(C)COC1=O`: the outcome under setting [1] was “inactive; no positive results”.

In the case of `CC(C)OC(=O)Nc1cccc(Cl)c1`, the outcome under setting [1] was “inactive; no positive results”.

With `[Cl-].[Cl-].[Sn+2]`, the outcome under setting [1] was “inactive; no positive results”.

For `COC(=O)C(C)(C)Oc1ccc(-c2ccc(Cl)cc2)cc1`, the Potency (TD50_Mouse_Note: TD50 is harmonic mean of more than one positive test, greater than ten-fold variation among TD50 values for positive res, TargetSites_Mouse_Female: liver) was 0.00824 mmol/kg/day.

`C/C=C/C=C/C(=O)O`: the outcome under setting [1] was “inactive; no positive results”.

For `N[C@@H](CCC(=O)NNc1ccc(C(=O)O)cc1)C(=O)O`, the Potency under setting [3] is 0.985 mmol/kg/day.

`O=[N+]([O-])c1ccc(NCCO)c(OCCO)c1`: the outcome under setting [1] is “inactive; no positive results”.

As to `ClC=C(Cl)Cl`, the Potency under setting [2] was 2.61 mmol/kg/day and the Potency (TD50_Mouse_Note: TD50 is harmonic mean of more than one positive test, greater than ten-fold variation among TD50 values for positive res, TargetSites_Mouse_Female: liver, lung) was 12 mmol/kg/day.

In the case of `ClC(Cl)(Cl)c1ccccc1`, the Potency (TargetSites_Mouse_Female: hematopoietic system, lung, stomach) is 0.00203 mmol/kg/day.

As to `O=C1NS(=O)(=O)c2ccccc21`, the outcome under setting [1] is “inactive; no positive results”.

As to `CN(C)C(=O)Nc1ccc(Cl)c(Cl)c1`, the outcome under setting [1] is “inactive; no positive results”.

With `Oc1cccc2cccnc12`, the outcome under setting [1] is “inactive; no positive results”.

Consider `C=CC(O)c1ccc(OC)cc1` (stereo not given), for which, under setting [5], the Potency was 0.352 mmol/kg/day.

For the molecule `CCN(CC)C(=S)SSC(=S)N(CC)CC`, the outcome under setting [1] is “inactive; no positive results”.

For the molecule `O=C(O)c1ccc(N=Nc2ccc(O)c(C(=O)O)c2)cc1`, the outcome under setting [1] was “inactive; no positive results”.

In the case of `COc1ccc([N+](=O)[O-])cc1N`, the Potency under setting [5] was 22.1 mmol/kg/day.

In the case of `Nc1ccc(O)c(N)c1`, under setting [3], the Potency was 0.726 mmol/kg/day.

As for `S=c1[nH]c2ccccc2s1`, the outcome under setting [1] was “inactive; no positive results”.

`O=C(O)[C@@H]1[C@H](C(=O)O)[C@@]2(Cl)C(Cl)=C(Cl)[C@]1(Cl)C2(Cl)Cl`: the Potency under setting [3] is 0.363 mmol/kg/day.

Regarding `C=CCOc1ccccc1OCC(O)CNC(C)C` (stereo not given), the outcome under setting [1] was “inactive; no positive results”.

For `CN(C)c1ccc(C(=C2C=CC(=[N+](C)C)C=C2)c2ccc(N(C)C)cc2)cc1`, the Potency (TD50_Mouse_Note: TD50 is harmonic mean of more than one positive test, TargetSites_Mouse_Female: harderian gland, hematopoietic system, liver) is 0.222 mmol/kg/day.

For the molecule `CN(C)C(=O)Nc1ccc(Cl)cc1`, the outcome under setting [1] is “inactive; no positive results”.

For the molecule `Cc1cc(Cl)ccc1N`, the Potency (TD50_Mouse_Note: TD50 is harmonic mean of more than one positive test, greater than ten-fold variation among TD50 values for positive res, TargetSites_Mouse_Female: vascular system) was 0.145 mmol/kg/day.

Take `NNC(N)=S`: under setting [1], the outcome was “inactive; no positive results”.

In the case of `Nc1ccc(N)cc1`, the outcome under setting [1] was “inactive; no positive results”.

For `C=CCc1ccc(OC)c(OC)c1`, under setting [2], the Potency was 0.108 mmol/kg/day.

`O=C1c2ccccc2CN2C(=O)c3ccccc3CN12`: under “TD50_Mouse_Note: TD50 is harmonic mean of more than one positive test, TargetSites_Mouse_Female: liver, vascular system”, the Potency is 3.27 mmol/kg/day.

As for `CNC[C@H](O)c1cccc(O)c1`, the outcome under setting [1] was “inactive; no positive results”.

`O=NO`: under setting [1], the outcome is “inactive; no positive results”.

Take `COc1ccc(C(c2ccc(OC)cc2)C(Cl)(Cl)Cl)cc1`: the outcome under setting [1] was “inactive; no positive results”.

`CC(Cl)C=O` (stereo not given): for the setting “TargetSites_Mouse_Female: stomach”, the Potency is 0.139 mmol/kg/day.

Consider `CC(=O)NNC(=O)c1ccncc1`, for which the Potency under setting [6] is 1.84 mmol/kg/day.

Turning to `O=C(CCl)c1ccccc1`, under setting [1], the outcome was “inactive; no positive results”.

In the case of `CCc1cc(C(N)=S)ccn1`, the Potency (TargetSites_Mouse_Female: thyroid gland) was 0.417 mmol/kg/day.

Consider `[O]=[Mo](=[O])=[O]`, for which the Potency (TD50_Mouse_Note: TD50 is harmonic mean of more than one positive test, greater than ten-fold variation among TD50 values for positive res, TargetSites_Mouse_Female: lung) is 0.0426 mmol/kg/day.

As to `Nc1ccc(Nc2ccccc2)cc1`, under setting [1], the outcome is “inactive; no positive results”.

Regarding `NNCc1ccccc1`, the Potency (TargetSites_Mouse_Female: lung) is 0.437 mmol/kg/day.

Turning to `CN(Cc1cnc2nc(N)nc(N)c2n1)c1ccc(C(=O)N[C@@H](CCC(=O)O)C(=O)O)cc1`, the outcome under setting [1] was “inactive; no positive results”.

In the case of `F`, the outcome under setting [1] is “inactive; no positive results”.

Regarding `C#C[C@]1(O)CC[C@H]2[C@@H]3CCC4=C(CCC(=O)C4)[C@H]3CC[C@@]21C`, the outcome (TD50_Mouse_Note: TD50 is harmonic mean of more than one positive test, greater than ten-fold variation among TD50 values for positive res, TargetSites_Mouse_Female: pituitary gland) was “active; no positive results” and the outcome under setting [1] was “inactive; no positive results”.

Regarding `Cc1ncc([N+](=O)[O-])n1CCO`, under “TD50_Mouse_Note: TD50 is harmonic mean of more than one positive test, TargetSites_Mouse_Female: hematopoietic system, lung”, the Potency was 2.96 mmol/kg/day.

For `Clc1ccc(C(c2ccc(Cl)cc2)C(Cl)(Cl)Cl)cc1`, the Potency (TD50_Mouse_Note: TD50 is harmonic mean of more than one positive test, greater than ten-fold variation among TD50 values for positive res, TargetSites_Mouse_Female: hematopoietic system, liver, lung) was 0.0361 mmol/kg/day.

`C#C[C@]1(OC(C)=O)CC[C@H]2[C@@H]3CCC4=CC(=O)CC[C@@H]4[C@H]3CC[C@@]21C`: the outcome (TD50_Mouse_Note: no positive results are statistically significant, TD50_Mouse_mmol was not calculated for this mixture, but Activiity Sc, TargetSites_Mouse_Female: pituitary gland) was active.

`c1ccc2[nH]ccc2c1`: the outcome under setting [1] was inactive.

Consider `Cc1noc(NS(=O)(=O)c2ccc(N)cc2)c1C`, for which the outcome under setting [1] was “inactive; no positive results”.

As for `O=Cc1ccccc1`, under setting [4], the Potency is 14 mmol/kg/day.

Take `COP(=S)(OC)Oc1ccc([N+](=O)[O-])cc1`: the outcome under setting [1] was “inactive; no positive results”.

Take `Nc1ccc(N=Nc2ccc(N)cc2)cc1`: the outcome under setting [1] was “inactive; no positive results”.

For the molecule `Oc1ccccc1-c1ccccc1`, the outcome under setting [1] was “inactive; no positive results”.

In the case of `COP(=S)(OC)SCn1nnc2ccccc2c1=O`, under setting [1], the outcome is “inactive; no positive results”.

With `[O-][Br+2]([O-])O`, the Potency under setting [3] is 0.322 mmol/kg/day.

For `Cc1cccc(C)c1NC(=O)CN1CCCC1=O`, under setting [1], the outcome was “inactive; no positive results”.

As to `O=C(O)c1[nH]n(-c2ccc(S(=O)(=O)O)cc2)c(=O)c1N=Nc1ccc(S(=O)(=O)O)cc1`, under setting [1], the outcome is “inactive; no positive results”.

As to `COc1ccc(OC)c(/C=C/c2ccc(N)cc2)c1`, the Potency under setting [3] was 0.376 mmol/kg/day.

With `ClC1C2(Cl)C3C4C5OC5C5C4C1(Cl)C(Cl)(C53)C2(Cl)Cl` (stereo not given), the outcome under setting [1] was “inactive; no positive results”.

In the case of `C[C@]12CC[C@@H]3c4ccc(OC(=O)Cc5ccc(N(CCCl)CCCl)cc5)cc4CC[C@H]3[C@@H]1CC[C@@H]2OC(=O)Cc1ccc(N(CCCl)CCCl)cc1`, for the setting “TD50_Mouse_Note: TD50 is harmonic mean of more than one positive test, TargetSites_Mouse_Female: hematopoietic system, lung, myocardium, stomach”, the Potency was 0.00184 mmol/kg/day.

Regarding `C=Cc1ccccc1`, the Potency under setting [6] was 2.02 mmol/kg/day.

For the molecule `O=C(O)c1ccncc1`, the outcome under setting [1] was “inactive; no positive results”.

Take `CCn1c2ccccc2c2cc(N)ccc21`: the outcome (TD50_Mouse_Note: TD50 is harmonic mean of more than one positive test, TD50_Mouse_mmol was not calculated for this mixture, but Activiity, TargetSites_Mouse_Female: liver) was “active; liver”. For the same molecule, the Potency under setting [2] is 0.156 mmol/kg/day.

In the case of `CC(C)CCC[C@@H](C)[C@H]1CC[C@H]2[C@@H]3CC=C4C[C@@H](OC(=O)Cc5ccc(N(CCCl)CCCl)cc5)CC[C@]4(C)[C@H]3CC[C@]12C`, where the note is “TD50_Mouse_Note: TD50 is harmonic mean of more than one positive test, TargetSites_Mouse_Female: hematopoietic system, lung, myocardium”, the Potency is 0.000955 mmol/kg/day.
